This passage reports T/C results from PubChem BioAssay AID248 (DTP/NCI, 2004).

Values joined by “and” are separate entries in the source; they are usually repeats but may differ in a detail not shown here. Equal entries are not always repeated. Inconclusive results and toxic doses are left out.

The assay has as its system L1210 leukemia ip in BDF1 mice, survival T/C. The assay can be described thus: NCI In Vivo Anticancer Drug Screen. Data for tumor model L1210 Leukemia (intraperitoneal) in B6D2F1 (BDF1) mice. Particulars: endpoint: mean survival time, higher = longer survival. An outline of the steps:
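Transplantable tumor model; survival measured in treated vs vehicle control mice. Value = treated/control.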

The mark [1] stands for this setting: dose: 100.0 mg/kg/injection, schedule: Q04DX003 (ip), vehicle: Klucel (hydroxypropylcellulose) (HPC).

In the case of `CCCC(=O)Nc1ccc(N)cc1OC`, the T/C by setting is: (dose: 5.0 mg/kg/injection, schedule: Q01DX009 (ip), vehicle: saline) 100 % of control; (dose: 5.0 mg/kg/injection, schedule: Q04DX003 (ip), vehicle: Klucel (hydroxypropylcellulose) (HPC)) 96 % of control; (dose: 10.0 mg/kg/injection, schedule: Q01DX009 (ip), vehicle: saline) 100 % of control; (dose: 10.0 mg/kg/injection, schedule: Q04DX003 (ip), vehicle: Klucel (hydroxypropylcellulose) (HPC)) 102 % of control; (dose: 20.0 mg/kg/injection, schedule: Q01DX009 (ip), vehicle: saline) 100 % of control; (dose: 20.0 mg/kg/injection, schedule: Q04DX003 (ip), vehicle: Klucel (hydroxypropylcellulose) (HPC)) 96 % of control.

With `CCOC(=O)NNC(=S)Nc1cccc(C(F)(F)F)c1`, the T/C runs as follows: (dose: 100.0 mg/kg/injection, schedule: Q04DX002 (ip), vehicle: saline with Tween-80) 111 % of control; (dose: 200.0 mg/kg/injection, schedule: Q04DX002 (ip), vehicle: saline with Tween-80) 108 % of control.

For the compound `CCOC(=O)Nc1cc(Cl)c([N+](=O)[O-])c(NC(=O)OCC)n1`, the T/C (dose: 100.0 mg/kg/injection, schedule: Q01DX001 (ip), vehicle: other) was 102 % of control and the T/C (dose: 200.0 mg/kg/injection, schedule: Q01DX001 (ip), vehicle: other) was 91 % of control.

Take `O=[N+]([O-])/C=C/c1ccc(Br)cc1`: under “dose: 75.0 mg/kg/injection, schedule: Q01DX001 (ip), vehicle: saline”, the T/C was 95 % of control.

For `CCSC1OC(CO)C(O)C1Nc1ccc([N+](=O)[O-])cc1[N+](=O)[O-]` (configuration not stated), the T/C by setting is: (dose: 50.0 mg/kg/injection, schedule: Q01DX001 (ip), vehicle: carboxymethylcellulose (CMC)) 89 % of control; (dose: 100.0 mg/kg/injection, schedule: Q01DX001 (ip), vehicle: carboxymethylcellulose (CMC)) 94 % of control.

Consider `NN=C(c1ccccc1)c1ccccc1`, for which the T/C runs as follows: (dose: 1.3 mg/kg/injection, schedule: Q01DX009 (ip), vehicle: Klucel (hydroxypropylcellulose) (HPC)) 103 % of control; (dose: 2.61 mg/kg/injection, schedule: Q01DX009 (ip), vehicle: Klucel (hydroxypropylcellulose) (HPC)) 94 % of control; (dose: 5.23 mg/kg/injection, schedule: Q01DX009 (ip), vehicle: Klucel (hydroxypropylcellulose) (HPC)) 94 % of control; (dose: 10.46 mg/kg/injection, schedule: Q01DX009 (ip), vehicle: Klucel (hydroxypropylcellulose) (HPC)) 86 % of control; (dose: 25.0 mg/kg/injection, schedule: Q04DX003 (ip), vehicle: Klucel (hydroxypropylcellulose) (HPC)) 97 % of control; (dose: 41.87 mg/kg/injection, schedule: Q01DX009 (ip), vehicle: Klucel (hydroxypropylcellulose) (HPC)) 91 % of control. Also, the T/C runs as follows: (dose: 50.0 mg/kg/injection, schedule: Q01DX001 (ip), vehicle: saline) 96 % of control; (dose: 50.0 mg/kg/injection, schedule: Q04DX003 (ip), vehicle: Klucel (hydroxypropylcellulose) (HPC)) 92 % of control; (dose: 83.7 mg/kg/injection, schedule: Q01DX009 (ip), vehicle: Klucel (hydroxypropylcellulose) (HPC)) 98 % of control; (dose: 100.0 mg/kg/injection, schedule: Q01DX001 (ip), vehicle: saline) 96 % of control; under setting [1], 111 % of control; (dose: 200.0 mg/kg/injection, schedule: Q01DX001 (ip), vehicle: saline) 100 % of control. The T/C (dose: 400.0 mg/kg/injection, schedule: Q01DX001 (ip), vehicle: saline) was 96 % of control.

Regarding `CN(C)c1ccc(P(c2ccc(N(C)C)cc2)c2ccc(N(C)C)cc2)cc1`, the T/C runs as follows: (dose: 100.0 mg/kg/injection, schedule: Q01DX009 (ip), vehicle: Klucel (hydroxypropylcellulose) (HPC)) 91 % of control; under setting [1], 95 % of control; (dose: 200.0 mg/kg/injection, schedule: Q01DX009 (ip), vehicle: Klucel (hydroxypropylcellulose) (HPC)) 91 % of control; (dose: 200.0 mg/kg/injection, schedule: Q04DX003 (ip), vehicle: Klucel (hydroxypropylcellulose) (HPC)) 95 % of control; (dose: 400.0 mg/kg/injection, schedule: Q01DX009 (ip), vehicle: Klucel (hydroxypropylcellulose) (HPC)) 87 % of control; (dose: 400.0 mg/kg/injection, schedule: Q04DX003 (ip), vehicle: Klucel (hydroxypropylcellulose) (HPC)) 95 % of control.

As for `CNC(=O)C(C)NC(C)=O` (configuration not stated), the T/C reads like this: (dose: 50.0 mg/kg/injection, schedule: Q04DX002 (ip), vehicle: saline) 99 % of control; (dose: 100.0 mg/kg/injection, schedule: Q04DX002 (ip), vehicle: saline) 102 % of control; (dose: 200.0 mg/kg/injection, schedule: Q04DX002 (ip), vehicle: saline) 105 % of control.

Regarding `O/N=c1/ccn(O)c2ccccc12`, the T/C reads like this: (dose: 0.5 mg/kg/injection, schedule: Q03HX008 (ip), vehicle: other) 114 % of control; (dose: 0.51 mg/kg/injection, schedule: Q01DX009 (ip), vehicle: saline) 111 % of control and 119 % of control; (dose: 0.78 mg/kg/injection, schedule: Q01DX009 (ip), vehicle: saline) 116 % of control; (dose: 1.0 mg/kg/injection, schedule: Q01DX009 (sc), vehicle: other) 114 % of control; (dose: 1.17 mg/kg/injection, schedule: Q01DX009 (ip), vehicle: saline) 110 % of control; (dose: 1.7 mg/kg/injection, schedule: Q01DX015 (ip), vehicle: saline) 108 % of control. Further, the T/C was 113 % of control (dose: 2.0 mg/kg/injection, schedule: Q01DX009 (sc), vehicle: other); 122 % of control (dose: 2.0 mg/kg/injection, schedule: Q01DX015 (ip), vehicle: saline); 151 % of control (dose: 2.0 mg/kg/injection, schedule: Q03HX008 (ip), vehicle: other); 118 % of control (dose: 4.0 mg/kg/injection, schedule: Q01DX001 (sc), vehicle: other); 88 % of control (dose: 4.0 mg/kg/injection, schedule: Q01DX009 (ip), vehicle: other); 98 % of control (dose: 4.0 mg/kg/injection, schedule: Q01DX009 (oral), vehicle: other). Besides, the T/C reads like this: (dose: 4.0 mg/kg/injection, schedule: Q01DX009 (sc), vehicle: other) 104 % of control; (dose: 4.0 mg/kg/injection, schedule: Q03HX016 (ip), vehicle: other) 87 % of control; (dose: 4.4 mg/kg/injection, schedule: Q01DX001 (ip), vehicle: other) 113 % of control; (dose: 6.0 mg/kg/injection, schedule: Q01DX015 (ip), vehicle: saline) 123 % of control; (dose: 6.6 mg/kg/injection, schedule: Q01DX001 (ip), vehicle: other) 113 % of control; (dose: 8.0 mg/kg/injection, schedule: Q01DX001 (ip), vehicle: other) 108 % of control. Further, the T/C reads like this: (dose: 8.0 mg/kg/injection, schedule: Q01DX001 (oral), vehicle: other) 102 % of control; (dose: 8.0 mg/kg/injection, schedule: Q01DX001 (sc), vehicle: other) 108 % of control; (dose: 8.0 mg/kg/injection, schedule: Q01DX005 (ip), vehicle: other) 93 % of control; (dose: 8.0 mg/kg/injection, schedule: Q01DX009 (oral), vehicle: other) 108 % of control; (dose: 8.0 mg/kg/injection, schedule: Q01DX009 (sc), vehicle: other) 120 % of control; (dose: 8.0 mg/kg/injection, schedule: Q04DX003 (ip), vehicle: other) 110 % of control. Besides, the T/C by setting is: (dose: 8.0 mg/kg/injection, schedule: Q08DX002 (ip), vehicle: other) 114 % of control; (dose: 9.0 mg/kg/injection, schedule: Q01DX015 (ip), vehicle: saline) 87 % of control; (dose: 16.0 mg/kg/injection, schedule: Q01DX001 (oral), vehicle: other) 103 % of control; (dose: 16.0 mg/kg/injection, schedule: Q01DX001 (sc), vehicle: other) 96 % of control; (dose: 16.0 mg/kg/injection, schedule: Q01DX009 (oral), vehicle: other) 103 % of control; (dose: 25.0 mg/kg/injection, schedule: Q04DX003 (ip), vehicle: saline) 88 % of control. The T/C runs as follows: (dose: 32.0 mg/kg/injection, schedule: Q01DX001 (oral), vehicle: other) 113 % of control; (dose: 32.0 mg/kg/injection, schedule: Q01DX001 (sc), vehicle: other) 118 % of control; (dose: 32.0 mg/kg/injection, schedule: Q01DX009 (oral), vehicle: other) 103 % of control; (dose: 40.0 mg/kg/injection, schedule: Q01DX001 (ip), vehicle: other) 109 % of control; (dose: 64.0 mg/kg/injection, schedule: Q01DX001 (oral), vehicle: other) 104 % of control; (dose: 80.0 mg/kg/injection, schedule: Q01DX001 (ip), vehicle: other) 89 % of control. Moreover, the T/C (dose: 128.0 mg/kg/injection, schedule: Q01DX001 (oral), vehicle: other) was 103 % of control.
